Entries after “also recorded” stand apart in the source; their conditions may differ.
Assays:
NUDT5 [1] = biological target: T1, NUDT5 (Homo sapiens, UniProt Q96SW2+Q9UKK9); test: Western blot NUDT5 degradation in HEK293 CRBN KO cells; format: cell-based; design: endogenous in cells; host or cells: HEK293 (CRBN KO); conditions: 100 nM, 20 h
Description: (§1) Pellets were lysed on ice using RIPA buffer (25 mM Tris (pH 7.5), 150 mM NaCl, 1% Igepal, 1% SDS, 0.1% SDC, 1x protease inhibitor (Roche, cOmplete mini, 11836170001), 1x phosphatase (Thermo Scientific, Halt, 78429), 0.1% benzonase (Merck, E1014-5KU)), incubated for 15 min and then centrifuged for 20 min at 4 °C at maximum speed in a table-top centrifuge. […] Membranes were blocked with 6% milk in PBS-T for 1 h at RT, washed, and then incubated with primary antibody diluted in PBS-T supplemented with 0.1% NaN3 overnight at 4 °C. Membranes were incubated with fluorophore-conjugated secondary antibodies, Alexa Fluor 680 anti-rabbit IgG (Life Technologies, A21109), Alexa Fluor 750 anti-mouse IgG (Life Technologies, A21037) diluted 1:5000 in 2% milk PBS-T, washed and imaged with an Odyssey imager (Licor).

HEK293 cells = test: Untargeted global proteomics of HEK293 cells; format: cell-based, human; conditions: 100 nM, 24 h; for total proteome analysis, downregulated proteins: 7135 quantified proteins
Description: (§2) Proteomics samples were digested with trypsin using STrap columns following the manufacturer’s protocol (C02-micro, ProtiFi). […] Then, the cell pellets were collected and lysed in 5% SDS containing 1 μL/mL benzonase (E1014, Millipore) and subsequently short sonication to shear genomic DNA (1×2 s pulse, 20% amplitude, microtip, Sonics Vibra Cell). 50 μg protein from the total cell lysate or 80% of the elution fraction of the chemical pulldown were first reduced by 20 mM dithiothreitol (M02712, Fluorochem), and alkylated by 40 mM iodoacetamide (I1149, Sigma). Phosphoric acid and S-Trap protein binding buffer were added to the sample lysates. Then, the SDS lysate/S-Trap buffer were loaded into a S-Trap column (C02-micro-80, ProtiFi). 1 μg of trypsin (V5111, Promega) was used to digest each sample at 37 °C for 20 h. The samples were then eluted and dried by vacuum centrifugation. Peptide pellets were resuspended in mass spectrometry-grade water with 2% acetonitrile (85188, Thermo Scientific) and 0.1% trifluoroacetic acid (85183, Thermo Scientific). The samples were injected into Orbitrap Fusion Lumos Tribrid Mass Spectrometer (Thermo Scientific). Sample acquisition was performed as previously described.
Raw data were searched against the human database (UP000005640, downloaded 08/21) using DIA-NN (v.1.8.1)[48] by enabling FASTA digest for library-free search and Deep learning-based spectra, RTs, and IMs prediction. Trypsin/P was selected for the in silico digestion of the provided FASTA file, allowing up to 2 missed cleavages. Fixed modifications included N-terminal methionine excision and cysteine carbamidomethylation. Variable modifications were methionine oxidation and N-terminal acetylation, with a maximum of one modification per precursor. Precursor FDR was kept at 1% and MBR enabled. The protein groups matrix was further analysed using Perseus (2.0.9.0)[49] or R studio (4.3.2). Potential contaminants were filtered against the top 300 most common Homo sapiens contaminants reported in CRAPome[50]. Proteins were removed if detected less than 70% across all runs. After column-wise normalisation by median subtraction, missing values were imputed by random numbers from a normal distribution (1.8 standard deviation, downshift width 0.3). Volcano plots were generated by calculating fold change and -log10(p-value) from an unpaired two-sided Student’s t-test.

NUDT5 [2] = biological target: T2, NUDT5 (Homo sapiens, UniProt Q9UKK9); test: Western blot NUDT5 degradation in HEK293 cells; format: cell-based; conditions: 20 h, Western blot, read-out: DC50 (half-maximal degradation concentration) of NUDT5
Description: as §1

NUDT5 [3] = biological target: T1, NUDT5; test: Western blot NUDT5 degradation in HEK293 cells; format: cell-based; conditions: for Dmax: 20 h, read-out: apparent Dmax of NUDT5 degradation
Description: as §1

[4] = biological target: NUDT5 and the respective E3 ligase (Homo sapiens, UniProt P40337+Q9UKK9); test: NanoBRET ternary complex formation assay NUDT5 and the respective E3 ligase (VHL or CRBN) in HEK293 cells; format: cell-based; conditions: Supplementary Table 2; for Ternary complex formation below 1 µM (4 h): HEK293, 4 h; for Ternary complex formation below 1 µM (20 h): HEK293, 20 h
Description: (§3) NanoBRET ternary complex assays were performed following the manufacturer’s instructions (Promega). […] After 4 h or 20 h of incubation, a mix of substrate in assay medium was added to each well. Donor and acceptor signals were measured in a PHERAstar FSX or FS plate reader and analyzed by GraphPad Prism (v.9 or v.10). The acceptor/donor ratio was calculated, the no ligand background signal was subtracted, and multiplied by 1000 to yield mBRET units. Data were then normalized to DMSO.

HAP1 cells [5] = test: Titration of NUDT5 degraders and controls against fixed 6-TG (2 µg/mL) in HAP1 cells, cell viability; format: cell-based, human; conditions: for concentration of maximal rescue of cell viability / rescue of 6-TG-induced toxicity: HAP1, 2 µg/mL 6-TG, 72 h
Description: (§4) Cells were counted and adjusted to a density of 25,000 cells/mL in culture medium. […] Plates were sealed with breathable film and incubated at 37 °C with 5% CO₂ for 72 hours. Cell viability was assessed using the CellTiter-Glo Luminescent Cell Viability Assay, following the manufacturer’s protocol (Promega). Luminescence was measured using a PHERAstar FS or FSX plate reader, and data were analyzed using GraphPad Prism software (versions 9 or 10). Results were normalized to the vehicle control (DMSO).

HAP1 NUDT5 KO cells = test: Cell viability (CellTiter-Glo) 6-TG assay in HAP1 NUDT5 KO cells; format: cell-based, human; conditions: Fig. 1A
Description: (§5) HEK293, MCF7, A549 were cultured in DMEM + 10% FBS, HAP1 and HL-60 were cultured in IMDM + 10% FBS. All cell lines were maintained at 37 °C and 5% CO2.
as §4

HAP1 cell lines = test: TH1760/6-TG cell viability assay in HAP1 cell lines; format: cell-based, human
Description: After 72 h incubation, cell viability was measured using the CellTiter-Glo assay (Promega). Signals were normalized to the control condition.

HAP1 cells [6] = test: Metabolomics with isotopically labeled formate/adenosine in HAP1 cells; format: cell-based, human; conditions: HAP1, 100 nM, 13C-D formate 1 mM, 15N adenosine 100 µM, 24 h
Description: Experiments were performed in duplicates. Approximately 1.5 × 10^6 HAP1 wt and NUDT5 KO cells were seeded in IMDM (full) prior to treatment with isotopically labeled metabolites. […] After 24 h, plates were washed with PBS and replaced with IMDM containing dialysed FBS (Gibco). Cells were treated with 1 mM of isotopically labeled sodium formate (Eurisotop, CDLM-6203-0.25) or with 1 mM of isotopically labeled sodium and 100 µM isotopically labeled adenosine (Silantes, 125303601). After 24 h, 5 × 10^6 cells for each replicate was harvested, washed with PBS, immediately snap frozen and stored at −80 °C. Cell pellets were lysed with 150 µL ice-cold 80:20 MeOH:H2O, vortexed and sonicated for 5 minutes on ice. The extract was centrifuged for 10 minutes at 10,000 × g at 4 °C and the supernatant was collected in a glass insert vial. This procedure was repeated and the two supernatants were combined. Solvent was evaporated in a vacuum concentrator. Metabolites were reconstituted in 50 µL pure MeOH. A Vanquish UHPLC system (Thermo Scientific) coupled with an Orbitrap Q Exactive (Thermo Scientific) mass spectrometer was used for the LC-MS analysis. […] Quantification of target metabolites was performed by manually integrating the area under the curve, and data were plotted using GraphPad Prism v.10.

HAP1 cells [7] = test: Untargeted global proteomics of HAP1 cells; format: cell-based, human; conditions: 100 nM, 6 h and 24 h
Description: as §2, with “Peptide pellets were resuspended in mass spectrometry-grade water with 2% acetonitrile (85188, Thermo Scientific) and 0.1% trifluoroacetic acid (85183, Thermo Scientific). The samples were injected into Orbitrap Fusion Lumos Tribrid Mass Spectrometer (Thermo Scientific). Sample acquisition was performed as previously described.” left out
Raw data were searched against the human database (UP000005640, downloaded 08/21) using DIA-NN (v.1.8.1)[48] by enabling FASTA digest for library-free search and Deep learning-based spectra, RTs, and IMs prediction. […] The protein groups matrix was further analysed using Perseus (2.0.9.0)[49] or R studio (4.3.2). […] Proteins were removed if detected less than 70% across all runs. […]

NUDT5 [8] = biological target: T2, NUDT5; test: Western blot NUDT5 degradation in HAP1 cells; format: cell-based; design: endogenous in cells; host or cells: HAP1; conditions: HAP1 cells, Western blot; read-out: DC50 (half-maximal degradation concentration) of NUDT5
Description: as §1

NUDT5 [9] = biological target: T1, NUDT5; test: Western blot NUDT5 degradation in HAP1 cells; format: cell-based; design: endogenous in cells; host or cells: HAP1
Description: as §1

NUDT5 [10] = biological target: T1, NUDT5; test: Western blot NUDT5 degradation in A549 cells; format: cell-based; design: endogenous in cells; host or cells: HAP1, A549, MCF7; conditions: A549, MCF7 and HAP1, 100 nM, 20 h
Description: as §1

NUDT5 [11] = biological target: T2, NUDT5; test: NanoBRET NUDT5 target engagement (TE) assay in HEK293 cells; format: cell-based; design: expressed in transfected cells; host or cells: HEK293; conditions: for EC50: HEK293 cells, Supplementary Fig. 6B, read-out: NUDT5 NanoBRET target engagement EC50
NUDT5 and CRBN = biological target: T3, NUDT5 and CRBN (Homo sapiens, UniProt Q96SW2+Q9UKK9); test: NanoBRET ternary complex formation assay NanoLuc-NUDT5 / HaloTag-CRBN in HEK293 cells; format: cell-based; conditions: intact HEK293 cells
T3 construct: expressed in transfected cells; host or cells: HEK293
Description: as §3

ZFP91 = biological target: T4, ZFP91 (Homo sapiens, UniProt Q96JP5); test: Western blot of ZFP91 levels in HEK293 and HAP1 cells; format: cell-based; conditions: 100 nM, 24 h
T4 construct: endogenous in cells; host or cells: HEK293 and HAP1
Description: as §1

HL-60 cells = test: Cell viability (CellTiter-Glo) 6-TG assay in HL-60 cells; format: cell-based, human
Description: as §5, §4

HAP1 cells [12] = test: Cell viability (CellTiter-Glo) and 6-TG assay in HAP1 WT cells; format: cell-based, human
Description: as §5, §4

Row | Structure (SMILES) | NUDT5 degradation in CRBN knockout cells (NUDT5 [1]) | effect on ZFP91 in global proteomics (HEK293 cells) | total proteome analysis, downregulated proteins (HEK293 cells) | DC50 (NUDT5 [2]) [nM] | Dmax (NUDT5 [3]; Western blot) [%] | Ternary complex formation below 1 µM (4 h) [4] | Ternary complex formation below 1 µM (20 h) [4] | concentration of maximal rescue of cell viability (HAP1 cells [5]) [nM] | EC50 (NUDT5 [11]) [nM] | rescue of 6-TG-induced toxicity (HAP1 cells [5]) | further results
1 | Cn1c(=O)c2c(nc(N3CCN(C(=O)CCOCCOCCOCCNc4cccc5c4C(=O)N(C4CCC(=O)NC4=O)C5=O)CC3)n2Cc2nnc(-c3ccc(Cl)c(Cl)c3)o2)n(C)c1=O (stereo not drawn) [ASM127] | CRBN knockout (KO) prevents PROTAC-mediated degradation of NUDT5 | slight effect on the zinc finger protein ZFP91 | NUDT5 as the most significantly downregulated protein | 12 | 71 | Yes | Yes | 50 to 100 |  |  | 
2 | Nc1nc2nc[nH]c2c(=S)[nH]1 [Compound 6-TG, 6-Thioguanine] |  |  |  |  |  |  |  |  |  |  | increase in 6-TG IC50, NUDT5 KO versus NUDT5 WT (HAP1 NUDT5 KO cells): four-fold increase; difference in 6-TG sensitivity, NUDT5 KO versus WT (HAP1 cell lines; HAP1, fixed TH1760 50 µM, 72 h, Fig. 4D): 2.8 fold; IC50 (HAP1 cell lines; Homo sapiens, HAP1 WT cells, approximately): ~1000 nM
3 | Cn1c(=O)c2c(nc(N3CCN(C(=O)N4CCC(CN5CCN(c6ccc7c(c6)C(=O)N(C6CCC(=O)NC6=O)C7=O)CC5)CC4)CC3)n2Cc2nnc(-c3ccc(Cl)c(Cl)c3)o2)n(C)c1=O (stereo not drawn) [dNUDT5] |  |  |  | 0.5 |  |  |  | 50 to 100 | 37 | most efficient compound in abrogating 6-TG-induced cell death | de novo derived IMP (HAP1 cells [6]): apparent increase in de novo derived IMP; global proteome analysis, downregulated proteins (HAP1 cells [7]): NUDT5 was the only significantly downregulated protein; DC50 (NUDT5 [8]): 0.3 nM; time course of NUDT5 degradation (NUDT5 [9]; 100 nM, up to 72 h): sustained degradation by dNUDT5 over a time course of 72 h; NUDT5 degradation (NUDT5 [9]; HAP1 cells, Western blot, Fig. 3B): induced robust degradation of endogenous NUDT5 protein; NUDT5 downregulation across a panel of cell lines (NUDT5 [10]): robust and consistent NUDT5 downregulation; NUDT5 engagement in live cells (NUDT5 [11]; NanoBRET): engaged their cognate target NUDT5 in live cells; ternary complex formation between NUDT5 and CRBN in cells (NUDT5 and CRBN): only dNUDT5 induced proficient ternary complex formation; ZFP91 levels (ZFP91): ZFP91 levels remained unchanged; also recorded: does not affect ZFP91 levels; mechanism of degradation (rescue by neddylation, proteasome, NUDT5 inhibitors and CRBN KO) (NUDT5 [3]): UPS-dependent; NUDT5 degradation (NUDT5 [3]; 100 nM, 6 h, Western blot, Supplementary Fig. 6A): induces degradation of NUDT5; boost of cancer cell viability in presence of 6-TG compared to TH5427 and DMSO control (HAP1 cells [5]; peer review file): more than 8 fold
4 | Cn1c(=O)c2c(nc(N3CCNCC3)n2Cc2nnc(-c3ccc(Cl)c(Cl)c3)o2)n(C)c1=O [TH5427, reference compound] |  |  |  |  |  |  |  |  | 3 | failed to rescue cell viability; also recorded: no signiﬁcant eﬀect | ability to desensitize cells to 6-TG treatment (phenocopy NUDT5 KO) (HL-60 cells): neither inhibitor was able to phenocopy the NUDT5 KO; ability to desensitize cells to 6-TG treatment (phenocopy NUDT5 KO) (HAP1 cells [12]): neither inhibitor was able to phenocopy the NUDT5 KO
5 | Cn1c(=O)c2c(nc(N3CCN(C(=O)CCOCCOCCOCCOCCNc4cccc5c4C(=O)N(C4CCC(=O)NC4=O)C5=O)CC3)n2Cc2nnc(-c3ccc(Cl)c(Cl)c3)o2)n(C)c1=O (stereo not drawn) [ASM130] | CRBN knockout (KO) prevents PROTAC-mediated degradation of NUDT5 | slight effect on the zinc finger protein ZFP91 | NUDT5 as the most significantly downregulated protein | 7 | 75 | Yes | Yes | 50 to 100 |  |  | 
